Source: PubChem BioAssay AID588618 (The Scripps Research Institute Molecular Screening Center, 2011)

The molecules below were run against Early growth response protein 1 (Homo sapiens) (UniProt P18146) (assay: altered EGR1 protein amount, DLD-1 – DLD1 cells, chemiluminescent western blot, powder samples, counter-screen for KLF5 inhibitor project, late-stage follow-up (AID 588618)). Details: DLD-1 cells, 24 h, at 10 µM, stronger effect = higher value.
Sequence of Early growth response protein 1 (Homo sapiens) (P18146 whole entry, looked up): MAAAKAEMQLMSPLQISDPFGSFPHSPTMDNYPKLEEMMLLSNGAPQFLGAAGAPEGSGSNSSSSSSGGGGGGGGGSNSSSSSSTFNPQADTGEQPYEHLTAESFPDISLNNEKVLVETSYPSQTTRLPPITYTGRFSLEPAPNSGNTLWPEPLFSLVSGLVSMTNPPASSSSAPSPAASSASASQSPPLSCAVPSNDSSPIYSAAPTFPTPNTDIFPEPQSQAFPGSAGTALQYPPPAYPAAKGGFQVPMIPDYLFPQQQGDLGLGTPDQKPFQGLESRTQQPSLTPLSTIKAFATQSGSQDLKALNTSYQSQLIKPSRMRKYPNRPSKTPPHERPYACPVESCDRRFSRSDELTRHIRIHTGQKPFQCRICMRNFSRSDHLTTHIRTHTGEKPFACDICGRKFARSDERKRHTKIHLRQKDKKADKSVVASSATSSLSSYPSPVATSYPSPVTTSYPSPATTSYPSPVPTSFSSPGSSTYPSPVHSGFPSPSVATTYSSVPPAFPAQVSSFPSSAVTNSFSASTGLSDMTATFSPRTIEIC

inhibition [%]	SMILES
19.4	CN(C(=O)COC(=O)/C=C/c1cccc([N+](=O)[O-])c1)C1CCS(=O)(=O)C1 (stereo not drawn)
14.3	CN(C(=O)CNC(=O)/C=C/c1cccc(Cl)c1)C1CCS(=O)(=O)C1 (stereo not drawn)
21.1	CN(C(=O)CNC(=O)/C=C/c1cccc(Cl)c1)C1CCS(=O)(=O)CC1
